Experimental data reported in PubChem BioAssay (NCI).
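Briefly, cells in 96-well plates were exposed to five compound concentrations for 48 h, and endpoints were estimated by linear interpolation. TGI: concentration producing complete growth inhibition.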

What was measured:
Assay in all cases: DTP human tumour cell line panel, 48 h
[1] = system: TK-10 renal
[2] = system: HOP-92 NSCLC
[3] = system: IGROV1 ovarian
[4] = system: RXF 393 renal
[5] = system: A549 NSCLC
[6] = system: LOX IMVI melanoma
[7] = system: U251 CNS
[8] = system: SR leukemia
[9] = system: NCI-H226 lung
[10] = system: SNB-78 CNS
[11] = system: NCI-H23 lung
[12] = system: MOLT-4 leukemia
[13] = system: M14 melanoma
[14] = system: KM20L2 colon
[15] = system: HCT-116 colon
[16] = system: UACC-257 melanoma
[17] = system: OVCAR-5 ovarian
[18] = system: DLD-1 colon
[19] = system: HOP-18 NSCLC
[20] = system: 786-0 renal
[21] = system: HOP-62 NSCLC
[22] = system: OVCAR-4 ovarian
[23] = system: SK-MEL-2 melanoma
[24] = system: OVCAR-3 ovarian
[25] = system: SF-268 CNS
[26] = system: HL-60(TB) leukemia
[27] = system: SK-OV-3 ovarian
[28] = system: XF 498 CNS
[29] = system: SK-MEL-28 melanoma
[30] = system: UACC-62 melanoma
[31] = system: HCT-15 colon
[32] = system: KM12 colon
[33] = system: SF-539 CNS
[34] = system: M19-MEL melanoma
[35] = system: COLO 205 colon
[36] = system: SN12C renal
[37] = system: SK-MEL-5 melanoma
[38] = system: SF-295 CNS
[39] = system: CAKI-1 renal
[40] = system: SW-620 colon
[41] = system: K-562 leukemia
[42] = system: HT29 colon
[43] = system: CCRF-CEM leukemia
[44] = system: UO-31 renal
[45] = system: HCC-2998 colon
[46] = system: SNB-75 CNS
[47] = system: DMS 273 small cell lung
[48] = system: EKVX NSCLC
[49] = system: DMS 114 small cell lung
[50] = system: RPMI-8226 leukemia
[51] = system: SNB-19 CNS
[52] = system: MALME-3M melanoma
[53] = system: OVCAR-8 ovarian
[54] = system: NCI-H522 lung
[55] = system: NCI-H460 lung
[56] = system: ACHN renal
[57] = system: NCI/ADR-RES ovarian
[58] = system: MDA-MB-231 breast
[59] = system: MDA-N
[60] = system: LXFL 529 NSCLC
[61] = system: A498 renal
[62] = system: PC-3 prostate
[63] = system: MDA-MB-435
[64] = system: DU-145 prostate
[65] = system: HS 578T breast
[66] = system: BT-549 breast
[67] = system: MCF7 breast

**Q.** Which TGI [1] does the source give for `C1OC1C1CO1` (centres undefined) here?
**A.** > 100 µM

**Q.** What about the TGI [2] of the same compound?
**A.** > 100 µM

**Q.** What about the TGI [3] of the same compound?
**A.** > 100 µM

**Q.** What about the TGI [4] of the same compound?
**A.** > 100 µM

**Q.** And the TGI [5]?
**A.** > 100 µM

**Q.** And the TGI [6]?
**A.** > 100 µM

**Q.** And the TGI [7]?
**A.** > 100 µM

**Q.** And the TGI [8]?
**A.** > 100 µM

**Q.** And the TGI [9]?
**A.** > 100 µM

**Q.** And the TGI [10]?
**A.** > 100 µM

**Q.** What about the TGI [11] of the same compound?
**A.** > 100 µM

**Q.** And the TGI [12]?
**A.** > 100 µM

**Q.** What about the TGI [13] of the same compound?
**A.** > 100 µM

**Q.** What about the TGI [14] of the same compound?
**A.** > 100 µM

**Q.** And the TGI [15]?
**A.** > 100 µM

**Q.** And the TGI [16]?
**A.** > 100 µM

**Q.** And the TGI [17]?
**A.** > 100 µM

**Q.** And the TGI [18]?
**A.** > 100 µM

**Q.** What about the TGI [19] of the same compound?
**A.** > 100 µM

**Q.** And the TGI [20]?
**A.** > 100 µM

**Q.** And the TGI [21]?
**A.** > 100 µM

**Q.** And the TGI [22]?
**A.** > 100 µM

**Q.** And the TGI [23]?
**A.** > 100 µM

**Q.** What about the TGI [24] of the same compound?
**A.** > 100 µM

**Q.** And the TGI [25]?
**A.** > 100 µM

**Q.** What about the TGI [26] of the same compound?
**A.** 64.2 µM

**Q.** And the TGI [27]?
**A.** > 100 µM

**Q.** What about the TGI [28] of the same compound?
**A.** > 100 µM

**Q.** What about the TGI [29] of the same compound?
**A.** > 100 µM

**Q.** And the TGI [30]?
**A.** > 100 µM

**Q.** And the TGI [31]?
**A.** > 100 µM

**Q.** What about the TGI [32] of the same compound?
**A.** > 100 µM

**Q.** What about the TGI [33] of the same compound?
**A.** > 100 µM

**Q.** What about the TGI [34] of the same compound?
**A.** > 100 µM

**Q.** What about the TGI [35] of the same compound?
**A.** > 100 µM

**Q.** And the TGI [36]?
**A.** > 100 µM

**Q.** What about the TGI [37] of the same compound?
**A.** > 100 µM

**Q.** And the TGI [38]?
**A.** > 100 µM

**Q.** What about the TGI [39] of the same compound?
**A.** > 100 µM

**Q.** What about the TGI [40] of the same compound?
**A.** > 100 µM

**Q.** And the TGI [41]?
**A.** > 100 µM

**Q.** And the TGI [42]?
**A.** > 100 µM

**Q.** And the TGI [43]?
**A.** > 100 µM

**Q.** And the TGI [44]?
**A.** > 100 µM

**Q.** And the TGI [45]?
**A.** > 100 µM

**Q.** And the TGI [46]?
**A.** > 100 µM

**Q.** What about the TGI [47] of the same compound?
**A.** > 100 µM

**Q.** What about the TGI [48] of the same compound?
**A.** > 100 µM

**Q.** And the TGI [49]?
**A.** > 100 µM

**Q.** And the TGI [50]?
**A.** > 100 µM

**Q.** And the TGI [51]?
**A.** > 100 µM

**Q.** What about the TGI [52] of the same compound?
**A.** > 100 µM

**Q.** And the TGI [53]?
**A.** > 100 µM

**Q.** And the TGI [54]?
**A.** > 100 µM

**Q.** Which results are given for `COc1ccc(-c2nc(N)n(C)c2SSc2c(-c3ccc(OC)cc3)nc(N)n2C)cc1`?
**A.** TGI [55]: 42.5 µM; TGI [1]: 27.6 µM; TGI [2]: 6.21 µM; TGI [3]: 29.4 µM; TGI [4]: 6.63 µM; TGI [5]: 45.4 µM; TGI [6]: 4.22 µM; TGI [7]: 26.2 µM; TGI [56]: 8.3 µM; TGI [8]: 5.48 µM; TGI [57]: 35.1 µM; TGI [9]: 37.3 µM; TGI [11]: 17.8 µM; TGI [12]: 5.1 µM; TGI [13]: 4.87 µM; TGI [58]: 19.7 µM; TGI [14]: 30.9 µM; TGI [59]: 6 µM; TGI [15]: 7.49 µM; TGI [16]: 14.5 µM; TGI [17]: 14.5 µM; TGI [18]: 15.3 µM; TGI [19]: 17.8 µM; TGI [20]: 29.2 µM; TGI [60]: 3.4 µM; TGI [21]: 32.1 µM; TGI [61]: 35.7 µM; TGI [22]: 15.9 µM; TGI [23]: 29.5 µM; TGI [24]: 21.2 µM; TGI [25]: 33.7 µM; TGI [26]: 14.1 µM; TGI [27]: 32.6 µM; TGI [28]: 4.92 µM; TGI [29]: 10.2 µM; TGI [30]: 10 µM; TGI [31]: 8.73 µM; TGI [32]: 26.7 µM; TGI [33]: 13.4 µM; TGI [34]: 4.67 µM; TGI [35]: 4.76 µM; TGI [36]: 25.5 µM; TGI [37]: 4.15 µM; TGI [38]: 25.5 µM; TGI [39]: 24.6 µM; TGI [40]: 5.09 µM; TGI [62]: 18.2 µM; TGI [41]: 15.5 µM; TGI [63]: 13.9 µM; TGI [42]: 28.5 µM; TGI [43]: 11.9 µM; TGI [44]: 11.9 µM; TGI [45]: 31.8 µM; TGI [46]: 24.8 µM; TGI [64]: 31.4 µM; TGI [47]: 13.4 µM; TGI [48]: 44.3 µM; TGI [49]: 4.61 µM; TGI [65]: 29.7 µM; TGI [66]: 5.54 µM; TGI [50]: 7.46 µM; TGI [51]: 27.2 µM; TGI [52]: 22.2 µM; TGI [53]: 16.3 µM; TGI [67]: 23 µM; TGI [54]: 3.57 µM

**Q.** With `COc1ccc(C(=O)NCCC2=CCCCC2)cc1` as the compound, how does the TGI [55] read?
**A.** > 100 µM

**Q.** And the TGI [1]?
**A.** > 100 µM

**Q.** What about the TGI [2] of the same compound?
**A.** > 100 µM

**Q.** What about the TGI [3] of the same compound?
**A.** > 100 µM

**Q.** And the TGI [4]?
**A.** > 100 µM

**Q.** And the TGI [5]?
**A.** > 100 µM

**Q.** And the TGI [6]?
**A.** > 100 µM

**Q.** What about the TGI [7] of the same compound?
**A.** > 100 µM

**Q.** What about the TGI [56] of the same compound?
**A.** > 100 µM

**Q.** What about the TGI [8] of the same compound?
**A.** > 100 µM

**Q.** And the TGI [10]?
**A.** > 100 µM

**Q.** And the TGI [11]?
**A.** > 100 µM

**Q.** What about the TGI [14] of the same compound?
**A.** > 100 µM

**Q.** What about the TGI [15] of the same compound?
**A.** > 100 µM

**Q.** What about the TGI [16] of the same compound?
**A.** > 100 µM

**Q.** And the TGI [17]?
**A.** > 100 µM

**Q.** What about the TGI [18] of the same compound?
**A.** > 100 µM

**Q.** And the TGI [19]?
**A.** > 100 µM

**Q.** And the TGI [20]?
**A.** > 100 µM

**Q.** And the TGI [21]?
**A.** > 100 µM

**Q.** And the TGI [61]?
**A.** > 100 µM

**Q.** What about the TGI [22] of the same compound?
**A.** > 100 µM

**Q.** And the TGI [23]?
**A.** > 100 µM

**Q.** And the TGI [24]?
**A.** > 100 µM

**Q.** And the TGI [25]?
**A.** > 100 µM

**Q.** And the TGI [28]?
**A.** > 100 µM

**Q.** What about the TGI [29] of the same compound?
**A.** > 100 µM

**Q.** What about the TGI [30] of the same compound?
**A.** > 100 µM

**Q.** And the TGI [31]?
**A.** > 100 µM

**Q.** What about the TGI [32] of the same compound?
**A.** > 100 µM

**Q.** And the TGI [33]?
**A.** > 100 µM

**Q.** And the TGI [34]?
**A.** > 100 µM

**Q.** And the TGI [35]?
**A.** > 100 µM

**Q.** What about the TGI [36] of the same compound?
**A.** > 100 µM

**Q.** And the TGI [37]?
**A.** > 100 µM

**Q.** What about the TGI [38] of the same compound?
**A.** > 100 µM

**Q.** And the TGI [39]?
**A.** > 100 µM

**Q.** What about the TGI [40] of the same compound?
**A.** > 100 µM

**Q.** And the TGI [41]?
**A.** > 100 µM

**Q.** What about the TGI [42] of the same compound?
**A.** > 100 µM

**Q.** What about the TGI [43] of the same compound?
**A.** > 100 µM

**Q.** And the TGI [46]?
**A.** > 100 µM

**Q.** And the TGI [47]?
**A.** > 100 µM

**Q.** What about the TGI [48] of the same compound?
**A.** > 100 µM

**Q.** What about the TGI [49] of the same compound?
**A.** > 100 µM

**Q.** What about the TGI [50] of the same compound?
**A.** > 100 µM

**Q.** And the TGI [51]?
**A.** > 100 µM

**Q.** What about the TGI [52] of the same compound?
**A.** > 100 µM

**Q.** What about the TGI [53] of the same compound?
**A.** > 100 µM
